This experiment addresses T1, human liver glycogen phosphorylase a (HLGPa) (Homo sapiens, UniProt P06737).
T1 construct: creating a full-length cDNA fused at the 5′ end to codons for methionine-glycine-alanine-histidine; 6xHis tag (leader Met-Gly-Ala-His6-Gly-Gly) (N); made in house; host or cells: E. coli (bacterial expression plasmid pTXK1007LTev)
T1 sequence (P06737 2-847 limits assumed): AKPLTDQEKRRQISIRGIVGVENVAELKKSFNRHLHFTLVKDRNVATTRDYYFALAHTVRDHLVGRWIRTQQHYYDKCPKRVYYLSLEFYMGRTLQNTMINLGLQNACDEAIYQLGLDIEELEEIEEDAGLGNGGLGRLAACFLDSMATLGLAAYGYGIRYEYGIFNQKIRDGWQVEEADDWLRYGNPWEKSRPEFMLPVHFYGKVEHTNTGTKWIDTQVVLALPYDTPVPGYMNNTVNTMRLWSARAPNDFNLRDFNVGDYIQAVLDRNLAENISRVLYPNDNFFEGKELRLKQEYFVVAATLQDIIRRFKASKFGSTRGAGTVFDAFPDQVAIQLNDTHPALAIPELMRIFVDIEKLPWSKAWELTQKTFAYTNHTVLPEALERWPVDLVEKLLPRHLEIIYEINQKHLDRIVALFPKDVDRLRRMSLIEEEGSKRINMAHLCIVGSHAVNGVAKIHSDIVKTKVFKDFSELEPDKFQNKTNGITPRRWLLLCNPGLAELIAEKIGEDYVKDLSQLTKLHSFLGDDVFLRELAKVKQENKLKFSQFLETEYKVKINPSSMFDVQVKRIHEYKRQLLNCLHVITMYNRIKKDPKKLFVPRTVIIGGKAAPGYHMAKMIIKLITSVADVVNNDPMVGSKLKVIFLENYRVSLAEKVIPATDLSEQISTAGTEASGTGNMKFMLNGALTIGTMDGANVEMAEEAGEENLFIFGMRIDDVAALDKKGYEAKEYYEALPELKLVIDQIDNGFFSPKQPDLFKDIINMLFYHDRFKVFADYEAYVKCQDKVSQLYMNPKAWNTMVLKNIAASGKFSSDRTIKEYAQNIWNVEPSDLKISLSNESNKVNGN
The experiment can be described thus: Human liver glycogen phosphorylase a enzymatic activity assay (coupled, fluorescent resorufin readout, with and without 10 mM glucose). Format: biochemical. The following applies: human liver glycogen phosphorylase a; table does not say whether with or without 10 mM glucose.

Molecules are shown by their SMILES.

`COc1ccc(-c2ccc(C(=O)N[C@@H](CC(=O)OC(C)(C)C)C(=O)OC(C)(C)C)c(NC(=O)Nc3c(C)cc(C)cc3C)c2)cc1` [Example 361, bis(1,1-dimethylethyl) N-{[4′-(methyloxy)-3-({[(2,4,6-trimethylphenyl)amino]carbonyl}amino)-4-biphenylyl]carbonyl}-L-aspartate] showed an IC50 of 6070 nM.
To `COc1ccc(-c2ccc(C(=O)N[C@@H](CC(=O)O)C(=O)O)c(NC(=O)Nc3c(C)cc(C)cc3C)c2)cc1` [Example 362, N-{[4′-(methyloxy)-3-({[(2,4,6-trimethylphenyl)amino]carbonyl}amino)-4-biphenylyl]carbonyl}-L-aspartic acid] belongs 6 nM.
Next, `CCOC(=O)C[C@H](NC(=O)c1cc2ccccc2cc1NC(=O)Nc1c(C)cc(C)cc1C)C(=O)O` [Example 363, (2S)-4-(ethyloxy)-4-oxo-2-({[3-({[(2,4,6-trimethylphenyl)amino]carbonyl}amino)-2-naphthalenyl]carbonyl}amino)butanoic acid]: 360 nM; `O=C(O)C[C@H](NC(=O)c1ccc(F)cc1NC(=O)Nc1c(Cl)cccc1Cl)C(=O)O` [Example 364, N-{[2-({[(2,6-dichlorophenyl)amino]carbonyl}amino)-4-fluorophenyl]carbonyl}-L-aspartic acid]: 1280 nM; `Cc1cc(C)c(NC(=O)Nc2cc(F)ccc2C(=O)N[C@@H](CC(=O)O)C(=O)O)c(C)c1` [Example 365, N-{[4-fluoro-2-({[(2,4,6-trimethylphenyl)amino]carbonyl}amino)phenyl]carbonyl}-L-aspartic acid]: 1680 nM.
Next, `CCOC(=O)C[C@H](NC(=O)c1ccc(-c2ccc(OC)cc2)cc1NC(=O)Nc1c(C)cc(C)cc1C)C(=O)OCc1ccccc1` [Example 366, 4-ethyl 1-(phenylmethyl)N-{[4′-(methyloxy)-3-({[(2,4,6-trimethylphenyl)amino]carbonyl}amino)-4-biphenylyl]carbonyl}-L-aspartate]: 11100 nM; `CCOC(=O)C[C@H](NC(=O)c1ccc(-c2ccc(OC)cc2)cc1NC(=O)Nc1c(C)cc(C)cc1C)C(=O)O` [Example 367, (2S)-4-(ethyloxy)-2-({[4′-(methyloxy)-3-({[(2,4,6-trimethylphenyl)amino]carbonyl}amino)-4-biphenylyl]carbonyl}amino)-4-oxobutanoic acid]: 640 nM.
In turn, `CCOC(=O)C[C@H](NC(=O)c1ccc(-c2ccc(OC)cc2)cc1NC(=O)Nc1c(C)cc(Br)cc1C)C(=O)OCc1ccccc1` [Example 368, 4-ethyl 1-(phenylmethyl) N-{[3-({[(4-bromo-2,6-dimethylphenyl)amino]carbonyl}amino)-4′-(methyloxy)-4-biphenylyl]carbonyl}-L-aspartate] yielded an IC50 of 5580 nM.
Consider `CCCc1cc(C)c(NC(=O)Nc2cc(-c3ccc(OC)cc3)ccc2C(=O)N[C@@H](CC(=O)OCC)C(=O)O)c(C)c1` [Example 369, (2S)-2-({[3-({[(2,6-dimethyl-4-propylphenyl)amino]carbonyl}amino)-4′-(methyloxy)-4-biphenylyl]carbonyl}amino)-4-(ethyloxy)-4-oxobutanoic acid], for which 94 nM corresponded to half-maximal inhibition (IC50).
Next, `CCCc1cc(C)c(NC(=O)Nc2cc(-c3ccc(OC)cc3)ccc2C(=O)N[C@@H](CC(=O)O)C(=O)O)c(C)c1` [Example 370, N-{[3-({[(2,6-dimethyl-4-propylphenyl)amino]carbonyl}amino)-4′-(methyloxy)-4-biphenylyl]carbonyl}-L-aspartic acid]: 2 nM.
To `COC(=O)[C@H](CC(=O)OC(C)(C)C)NC(=O)c1ccc(-c2ccc(OC)cc2)cc1NC(=O)Nc1c(C)cc(C)cc1C` [Example 371, 4-(1,1-dimethylethyl) 1-methyl N-{[4′-(methyloxy)-3-({[(2,4,6-trimethylphenyl)amino]carbonyl}amino)-4-biphenylyl]carbonyl}-L-aspartate] belongs 13500 nM; to `COC(=O)[C@H](CC(=O)O)NC(=O)c1ccc(-c2ccc(OC)cc2)cc1NC(=O)Nc1c(C)cc(C)cc1C` [Example 372, (3S)-4-(methyloxy)-3-({[4′-(methyloxy)-3-({[(2,4,6-trimethylphenyl)amino]carbonyl}amino)-4-biphenylyl]carbonyl}amino)-4-oxobutanoic acid], 990 nM.
Next, `Cc1cc(C)c(NC(=O)Nc2cc(-c3ccc(F)c(F)c3)ccc2C(=O)N[C@H](C(=O)O)[C@@H](C)OC(C)(C)C)c(C)c1` [Example 373, N-{[3′,4′-difluoro-3-({[(2,4,6-trimethylphenyl)amino]carbonyl}amino)-4-biphenylyl]carbonyl}-O-(1,1-dimethylethyl)-L-threonine]: 5 nM.
With `CCOC(=O)C[C@H](NC(=O)c1ccc(-c2ccc(F)c(F)c2)cc1NC(=O)Nc1c(C)cc(C)cc1C)C(=O)O` [Example 374, (2S)-2-({[3′,4′-difluoro-3-({[(2,4,6-trimethylphenyl)amino]carbonyl}amino)-4-biphenylyl]carbonyl}amino)-4-(ethyloxy)-4-oxobutanoic acid], half-maximal inhibition (IC50) was put at 820 nM.
Next, `Cc1cc(C)c(NC(=O)Nc2cc(-c3ccc(F)c(F)c3)ccc2C(=O)N[C@@H](CC(=O)O)C(=O)O)c(C)c1` [Example 375, N-{[3′,4′-difluoro-3-({[(2,4,6-trimethylphenyl)amino]carbonyl}amino)-4-biphenylyl]carbonyl}-L-aspartic acid]: 43 nM.
As to `Cc1cc(C)c(NC(=O)Nc2cc(-c3ccc(F)c(F)c3)ccc2C(=O)N[C@H](CC(=O)O)C(=O)O)c(C)c1` [Example 376, N-{[3′,4′-difluoro-3-({[(2,4,6-trimethylphenyl)amino]carbonyl}amino)-4-biphenylyl]carbonyl}-D-aspartic acid], 110 nM corresponded to half-maximal inhibition (IC50).
Next, `COC(=O)[C@H](CC(N)=O)NC(=O)c1ccc(-c2ccc(OC)cc2)cc1NC(=O)Nc1c(C)cc(C)cc1C` [Example 377, methyl N^2-{[4′-(methyloxy)-3-({[(2,4,6-trimethylphenyl)amino]carbonyl}amino)-4-biphenylyl]carbonyl}-L-asparaginate]: 9130 nM.
Next, `COc1ccc(-c2ccc(C(=O)N[C@@H](CC(N)=O)C(=O)O)c(NC(=O)Nc3c(C)cc(C)cc3C)c2)cc1` [Example 378, N^2-{[4′-(methyloxy)-3-({[(2,4,6-trimethylphenyl)amino]carbonyl}amino)-4-biphenylyl]carbonyl}-L-asparagine]: 100 nM; `Cc1cc(C)c(NC(=O)Nc2cc(-c3ccc(F)c(F)c3)ccc2C(=O)N[C@@H](CCC(=O)O)C(=O)O)c(C)c1` [Example 379, N-{[3′,4′-difluoro-3-({[(2,4,6-trimethylphenyl)amino]carbonyl}amino)-4-biphenylyl]carbonyl}-L-glutamic acid]: 84 nM.
To `COc1ccc(-c2ccc(C(=O)O)c(NC(=O)Nc3c(C)cc(C)cc3C)c2)cc1` [Example 380, 4′-(methyloxy)-3-({[(2,4,6-trimethylphenyl)amino]carbonyl}amino)-4-biphenylcarboxylic acid] belongs 1990 nM; to `COc1ccc(-c2ccc(C(=O)O)c(NC(=O)Nc3c(Cl)cc(OC(F)(F)F)cc3Cl)c2)cc1` [Example 381, 3-{[({2,6-dichloro-4-[(trifluoromethyl)oxy]phenyl}amino)carbonyl]amino}-4′-(methyloxy)-4-biphenylcarboxylic acid], 3420 nM.

Usually IC50 stands for the concentration that gives 50% inhibition. Low values mean inhibition by little substance, high ones a need for much substance.

The values above are taken from patent US20070249670A1, “Glycogen Phosphorylase Inhibitor Compounds and Pharmaceutical Compositions Thereof” (SMITHKLINE BEECHAM CORPORATION, priority 2004, published 2007).
